Data set [1] is described as follows: Selectivity index, ratio of IC50 for Vero cells to IC50 for chloroquine sensitive Plasmodium falciparum D6. The class given is toxicity, cell-based. The note with it: monkey, read-out: Ratio IC50.
Data set [2] deals with Plasmodium falciparum. The data set is described as follows: Antimalarial activity against chloroquine sensitive Plasmodium falciparum D6 after 72 hrs by LDH assay. The class given is functional, organism-based. To be noted: D6, 72 h.
The nature of data set [3]: Selectivity index, ratio of IC50 for Vero cells to IC50 for chloroquine resistant Plasmodium falciparum W2. The class given is toxicity, cell-based. To be noted: monkey, read-out: Ratio IC50.
Data set [4] relates to Plasmodium falciparum. The data set can be described thus: Antimalarial activity against chloroquine resistant Plasmodium falciparum W2 after 72 hrs by LDH assay. To be noted: W2, 72 h. The class given is functional, organism-based.

The values that follow come from ChEMBL document CHEMBL3785004, “New antimalarial norterpene cyclic peroxides from Xisha Islands sponge Diacarnus megaspinorhabdosa” (Bioorg Med Chem Lett, 2016).

Turning to `C=C1CCCC(C)(C)C1(O)CC/C(C)=C/CC[C@@]1(C)CC[C@H]([C@H](C)C(=O)O)OO1` (some centres undefined), the selectivity ratio in data set [1] stood at 1.6; in data set [3], 2.4. Moreover, the IC50 with Plasmodium falciparum [2] came out at 7.3 µM; with Plasmodium falciparum [4], 4.9 µM.

As for `CC1=C(CC[C@]2(C)CC[C@H]([C@@H](C)C(=O)O)OO2)C(C)(C)CCC1`, the selectivity ratio in data set [1] stood at 1.7; in data set [3], 2.6. Further, the IC50 in the data set on Plasmodium falciparum [2] turned out to be 8.1 µM; with Plasmodium falciparum [4], 5.5 µM.

As for `C=C1CCCC(C)(C)C1(O)CC/C(C)=C/CC[C@@]1(C)CC[C@H]([C@H](C)C(=O)OC)OO1` (some centres undefined), the selectivity ratio is 5.1 in data set [1] and 7 in data set [3]. The figures for the IC50 with Plasmodium falciparum [2] and in the data set with Plasmodium falciparum [4] were 2.2 µM and 1.6 µM, respectively.

`COC(=O)[C@@H](C)[C@H]1CC[C@](C)(CC/C=C(\C)CCC2(O)C(C)CCCC2(C)C)OO1` (some centres undefined): the selectivity ratio in data set [1] was found to be 2; in data set [3], 2.6. Besides, the values for the half-inhibitory concentration (IC50) in the data set with Plasmodium falciparum [2] and in the data set on Plasmodium falciparum [4] were 5.6 µM and 4.2 µM, respectively.

As to `COC(=O)[C@@H](C)[C@H]1CC[C@](C)(CC/C=C(\C)CCC2(C)C(C)CCCC2(C)O)OO1` (some centres undefined), the selectivity ratio came to 1.7 in data set [1] and 3.7 in data set [3]. In addition, the 50% inhibitory concentration (IC50) was 6.6 µM in the data set on Plasmodium falciparum [2] and 3 µM in the data set with Plasmodium falciparum [4].

As to `CC1=C(CC/C(C)=C/CC[C@@]2(C)CC[C@H]([C@H](C)C(=O)O)OO2)C(C)(C)CCC1`, the values for the selectivity ratio in data set [1] and in data set [3] were 1.4 and 2.2, respectively. Moreover, the IC50 with Plasmodium falciparum [2] amounted to 8.6 µM; in the data set with Plasmodium falciparum [4], 5.6 µM.

In the data set with Plasmodium falciparum [4], `C[C@@H]1CC[C@H]2[C@@H](C)C(=O)O[C@@H]3O[C@@]4(C)CC[C@@H]1[C@]32OO4` [ARTEMISININ] had a half-inhibitory concentration (IC50) of 0.14 µM.

On to `COC(=O)[C@H](C)[C@H]1CC[C@@](C)(CCC2=C(C)C(=O)CCC2(C)C)OO1` [DIACARPEROXIDE A], for which the selectivity ratio is 6.5 in data set [1] and 6.8 in data set [3]. Further, the IC50 in the data set with Plasmodium falciparum [2] turned out to be 2 µM; in the data set with Plasmodium falciparum [4], 1.9 µM.

One may read the IC50 as the point on the concentration scale where inhibition reaches its midpoint. High values mean lower potency, low ones higher potency.
